Results: ChEMBL document CHEMBL5727418, “Substituted imidazo[2,1-f][1,2,4]triazines, substituted imidazo[1,2-a]pyridines and substituted imidazo[1,2-b]pyridazines as PI3K-gamma inhibitors” (2019)

How the values were obtained:
[1] = molecular target: Phosphatidylinositol 4,5-bisphosphate 3-kinase catalytic subunit gamma isoform (Homo sapiens, UniProt P48736); test: PI3Kγ (p110γ) Recombinant Human Protein was purchased from Life technology (Grand Island, N.Y.). […] Inhibitors were first diluted serially in DMSO and added to the plate wells before the addition of other reaction components. The final concentration of DMSO in the assay was 2%. The PI3Kγ assay was carried out at room temperature in 20 mM MOPS, pH 6.7, 10 mM MgCl2, 5 mM DTT and CHAPS 0.03%. […] The final concentration of SPA beads is 1.0 mg/mL. After the plate sealing, plates were shaken overnight at room temperature and centrifuged at 1500 rpm for 10 min, the radioactivity of the product was determined by scintillation counting on Topcount (Perkin-Elmer).
Sequence of Phosphatidylinositol 4,5-bisphosphate 3-kinase catalytic subunit gamma isoform (P48736 whole entry, canonical isoform): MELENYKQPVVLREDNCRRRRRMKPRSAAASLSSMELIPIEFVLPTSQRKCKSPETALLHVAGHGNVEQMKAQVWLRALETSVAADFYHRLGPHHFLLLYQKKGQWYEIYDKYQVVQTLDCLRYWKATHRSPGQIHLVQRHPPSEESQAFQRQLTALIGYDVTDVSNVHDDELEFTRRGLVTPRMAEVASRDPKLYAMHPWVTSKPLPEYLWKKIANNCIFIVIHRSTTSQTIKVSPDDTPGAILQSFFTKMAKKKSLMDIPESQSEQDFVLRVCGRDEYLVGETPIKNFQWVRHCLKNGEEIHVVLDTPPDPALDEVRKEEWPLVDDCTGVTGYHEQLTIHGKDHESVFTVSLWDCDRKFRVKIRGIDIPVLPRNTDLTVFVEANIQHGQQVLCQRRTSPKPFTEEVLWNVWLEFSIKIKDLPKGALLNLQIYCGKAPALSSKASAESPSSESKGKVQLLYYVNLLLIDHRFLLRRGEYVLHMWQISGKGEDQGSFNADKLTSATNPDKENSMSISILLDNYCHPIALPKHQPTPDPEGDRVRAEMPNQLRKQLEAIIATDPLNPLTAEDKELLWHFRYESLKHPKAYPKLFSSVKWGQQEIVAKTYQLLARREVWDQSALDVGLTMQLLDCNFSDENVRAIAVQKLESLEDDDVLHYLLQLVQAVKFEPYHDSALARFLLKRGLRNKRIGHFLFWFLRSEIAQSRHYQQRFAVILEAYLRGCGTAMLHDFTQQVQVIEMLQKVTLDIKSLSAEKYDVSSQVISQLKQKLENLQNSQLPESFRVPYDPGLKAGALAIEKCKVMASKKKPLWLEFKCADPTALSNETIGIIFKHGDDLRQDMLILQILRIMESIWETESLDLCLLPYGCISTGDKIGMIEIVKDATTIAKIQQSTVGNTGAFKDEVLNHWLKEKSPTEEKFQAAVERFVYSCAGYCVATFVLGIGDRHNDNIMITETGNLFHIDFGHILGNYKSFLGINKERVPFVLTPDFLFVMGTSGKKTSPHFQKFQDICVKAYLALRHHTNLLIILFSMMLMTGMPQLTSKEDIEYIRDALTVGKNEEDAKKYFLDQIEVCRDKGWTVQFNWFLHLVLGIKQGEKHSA

[2] = molecular target: T1, Phosphatidylinositol 4,5-bisphosphate 3-kinase catalytic subunit delta isoform (Homo sapiens, UniProt O00329); test: Scintillation Proximity Assay: PI3Kδ:[γ-33P]ATP (10 mCi/mL) and Wheat Germ Agglutinin (WGA) YSi SPA Scintillation Beads was purchased from Perkin-Elmer (Waltham, Mass.). Lipid kinase substrate, D-myo-Phosphatidylinositol 4,5-bisphosphate (PtdIns(4,5)P2)D (+)-sn-1,2-di-O-octanoylglyceryl, 3-O-phospho linked (PIP2), CAS 204858-53-7, was purchased from Echelon Biosciences (Salt Lake City, Utah). PI3Kδ (p110δ/p85α) Recombinant Human Protein was purchased from Eurofins (St Charles, Mo.). ATP, MgCl2, DTT, EDTA, MOPS and CHAPS were purchased from Sigma-Aldrich (St. Louis, Mo.).The kinase reaction was conducted in polystyrene 384-well Greiner Bio-one white plate from Thermo Fisher Scientific in a final volume of 25 μL. Inhibitors were first diluted serially in DMSO and added to the plate wells before the addition of other reaction components. The final concentration of DMSO in the assay was 2%. The PI3Kδ assay was carried out at room temperature in 20 mM MOPS, pH 6.7, 10 mM MgCl2, 5 mM DTT and CHAPS 0.03%. Reactions were initiated by the addition of ATP, the final reaction mixture consisted of 20 μM PIP2, 2 μM ATP, 0.5 μCi [γ-33P] ATP, 3.4 nM PI3Kδ. Reactions were incubated for 120 min and terminated by the addition of 40 μL SPA beads suspended in quench buffer: 163 mM potassium phosphate pH 7.8, 20% glycerol, 25 mM EDTA. The final concentration of SPA beads is 1.0 mg/mL. […]
T1 sequence (O00329 whole entry): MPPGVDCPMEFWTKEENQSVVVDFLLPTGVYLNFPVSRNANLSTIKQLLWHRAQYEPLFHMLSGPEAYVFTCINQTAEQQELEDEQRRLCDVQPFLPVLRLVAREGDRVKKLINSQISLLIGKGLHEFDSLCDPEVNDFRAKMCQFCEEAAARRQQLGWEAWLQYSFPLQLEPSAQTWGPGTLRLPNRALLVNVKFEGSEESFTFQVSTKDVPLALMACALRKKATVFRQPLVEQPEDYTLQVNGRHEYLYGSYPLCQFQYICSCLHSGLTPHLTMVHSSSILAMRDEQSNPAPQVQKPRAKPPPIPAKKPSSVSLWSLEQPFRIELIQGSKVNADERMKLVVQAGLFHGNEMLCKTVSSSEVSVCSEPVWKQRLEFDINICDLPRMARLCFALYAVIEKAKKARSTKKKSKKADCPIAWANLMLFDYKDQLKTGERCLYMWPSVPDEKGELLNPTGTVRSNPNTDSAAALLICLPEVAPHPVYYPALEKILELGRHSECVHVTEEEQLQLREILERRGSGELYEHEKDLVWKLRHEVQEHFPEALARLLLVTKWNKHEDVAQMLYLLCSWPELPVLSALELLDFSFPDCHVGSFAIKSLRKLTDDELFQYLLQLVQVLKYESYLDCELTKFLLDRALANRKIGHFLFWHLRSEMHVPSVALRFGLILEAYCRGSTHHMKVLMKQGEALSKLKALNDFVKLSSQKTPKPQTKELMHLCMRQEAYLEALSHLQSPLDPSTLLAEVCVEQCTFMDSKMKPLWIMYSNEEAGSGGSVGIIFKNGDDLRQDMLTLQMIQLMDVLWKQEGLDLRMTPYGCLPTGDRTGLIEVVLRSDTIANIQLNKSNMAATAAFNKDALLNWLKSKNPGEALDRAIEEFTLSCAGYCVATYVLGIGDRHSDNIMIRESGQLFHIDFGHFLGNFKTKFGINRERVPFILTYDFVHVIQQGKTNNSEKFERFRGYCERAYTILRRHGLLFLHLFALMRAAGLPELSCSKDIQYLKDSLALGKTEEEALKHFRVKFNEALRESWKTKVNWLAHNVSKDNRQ

IC50 [1]: < 0.5 µM | IC50 [2]: < 2 µM
SMILES: Cc1ccc(S(=O)(=O)CC2CCC2)cc1-c1cnc2c(N)ncnn12
